Source: patent US9567625B2, “Method for detection of microorganism and kit for detection of microorganism” (MORINAGA MILK INDUSTRY CO., LTD., priority 2006, dated 2017)

Legend:
[1] = tested on: 16S rRNA gene of Listeria; experiment: PCR targeting the 16S rRNA gene after EMA treatment and topoisomerase poison or DNA gyrase poison treatment; type: cell-based, Listeria monocytogenes; settings: Listeria injured cells
Experimental: (§1) The live cell count of the live cell suspension was 1.3×10^8 cfu/ml
(§2) Therefore, the time for leaving the suspension at 4° C. under light shielding after the addition of EMA was shortened to 5 minutes, and the visible light irradiation time was also shortened to 5 minutes.
(§3) As described above, 1 tube of 1 ml EMA-untreated live cell suspension, […] of 1 ml EMA-treated live cell suspension, 1 tube of 1 ml EMA-untreated injured cell suspension, and 7 tubes of 1 ml EMA-treated injured cell suspension were prepared.
(§4) The EMA-treated live cell and injured cell suspensions were divided into 6 sets, each of which consisted of 1 tube of the live cell suspension and 1 tube of injured cell suspension.
The “PCR thermal cycle profile for amplification of 16S rRNA gene” mentioned in Example 3, 3-2) (Table 3) was applied.
Each of the DNA solutions prepared in 2-3) was diluted to 15 ng/μl with TE buffer, and 10 μl of the diluted solution was used as a template DNA in 3-1-1) or 3-2-1) mentioned above. That is, 150 ng of the template DNA was contained in 50 μl of the PCR mixture. As a negative control, 10 μl of TE buffer was used.
According to the PCR thermal cycle profile shown in 3-2-2) or 3-2-3) mentioned above, PCR was performed by using a real-time PCR apparatus i Cycler® (Biorad, model number: iQ).
(§5) For the detection of the hlyA gene amplification product, 3% agarose gel was used.

[2] = tested on: 23S rRNA gene of Listeria; experiment: Real-time PCR targeting the 23S rRNA gene after ciprofloxacin treatment; type: cell-based, Listeria monocytogenes; settings: PCR terminated after 20 cycles
Experimental: (§6) A master mix (total volume: 50 μl) of the following composition was prepared. • Ex-Taq® (Takara Shuzo, catalog number: RR001B; TaKaRa Ex Taq enzyme: 0.25 μl • 10× Ex-Taq® Buffer (Takara Shuzo, catalog number: RR001B): 5 μl • dNTP mixture (Takara Shuzo, catalog number: RR001B): 4 μl • 5 pmol/μl SEQ ID NO: 1 (23S-F) DNA: 2.5 μl • 5 pmol/μl SEQ ID NO: 2 (23S-R) DNA: 2.5 μl • 5 pmol/μl SEQ ID NO: 3 (23S-MF) DNA: 2.5 μl • 5 pmol/μl SEQ ID NO: 4 (23S-MR) DNA: 2.5 μl • 2×SYBR® Green (cyanine dye) (BMA, catalog number: 50513): 10 μl • Sterilized water: […] • Template DNA (15 ng/μl): 10 μl
The primers of SEQ ID NOS: 1 and 2 are primers for amplifying substantially all the region of 23S rRNA, and they provide an amplification fragment of about 2840 bp mainly from gram-negative bacteria. […]
According to the PCR thermal cycle profile shown in 2-2) mentioned above, PCR and TM analysis (melting temperature analysis) of the amplification product were performed by using a real-time PCR apparatus i Cycler® (Biorad, model number: iQ). The threshold value (boundary value) of real-time PCR was set to a value obtained by multiplying the standard deviation SD of fluorescence amounts obtained with SYBR® Green (cyanine dye) for 0 to 10 cycles by 10. […]

[3] = tested on: 23S rRNA gene of Enterobacter; experiment: Real-time PCR and TM analysis targeting the 23S rRNA gene after ciprofloxacin treatment; type: cell-based, Enterobacter sakazakii; settings: ciprofloxacin 72 hours; for result of PCR: PCR terminated after 27 cycles
Experimental: as §6
The primers of SEQ ID NOS: 1 and 2 are primers for amplifying substantially all the region of 23S rRNA, and they provide an amplification fragment of about 2840 bp mainly from gram-negative bacteria. The primers of SEQ ID NOS: 3 and 4 correspond to the center region of 23S rRNA, and they provide an amplification fragment of about 900 bp from gram-positive bacteria (also from gram negative bacteria).
Each of the DNA solutions prepared in 1-3) was diluted to 15 ng/μl with TE buffer, and 10 μl of the diluted solution was used as a template DNA in 2-1). That is, 150 ng of the template DNA was contained in 50 μl of the PCR reaction mixture. As a negative control, 10 μl of TE buffer was used.
According to the PCR thermal cycle profile shown in 2-2) mentioned above, PCR and TM analysis (melting temperature analysis) of the amplification product were performed by using a real-time PCR apparatus i Cycler® (Biorad, model number: iQ). The threshold value (boundary value) of real-time PCR was set to a value obtained by multiplying the standard deviation SD of fluorescence amounts obtained with SYBR® Green (cyanine dye) for 0 to 10 cycles by 10. In each real-time PCR amplification curve, number of cycle showing a value exceeding the threshold value is referred to as “Ct value” hereafter.

hlyA gene of Listeria = experiment: PCR targeting the hlyA gene after EMA treatment and topoisomerase poison or DNA gyrase poison treatment; type: cell-based, Listeria monocytogenes; settings: Listeria injured cells
Experimental: as §1, §2, §3, §4
A master mix (total volume: 50 μl) of the following composition was prepared. • Ex-Taq® (Takara Shuzo, catalog number: RR001B; TaKaRa Ex Taq enzyme): 0.25 μl • 10× Ex-Taq® Buffer (Takara Shuzo, catalog number: RR001B): 5 μl • dNTP mixture (Takara Shuzo, catalog number: RR001B): 4 μl • 5 pmol/μl SEQ ID NO: 7 (hlyA-F) DNA: 2.5 μl • 5 pmol/μl SEQ ID NO: 8 (hlyA-R) DNA: 2.5 μl • 2×SYBR® Green (cyanine dye) (BMA, catalog number: 50513): 10 μl • Sterilized water: 15.75 μl • Template DNA (15 ng/μl): 10 μl 3-1-2) PCR Thermal Cycle Profile for Amplification of hlyA Gene
Each of the DNA solutions prepared in 2-3) mentioned above was diluted to 15 ng/μl with TE buffer, and 10 μl of the diluted solution was used as a template DNA in 3-1-1) mentioned above. That is, 150 ng of the template DNA was contained in 50 μl of the PCR mixture. As a negative control, 10 μl of TE buffer was used.
According to the PCR thermal cycle profile shown in 3-1-2) mentioned above, PCR was performed by using a real-time PCR apparatus i Cycler® (Biorad, model number: iQ).
as §5

[4] = tested on: 16S rRNA gene of Citrobacter; experiment: PCR targeting the 16S rRNA gene after EMA treatment, electrophoresis; type: cell-based, Citrobacter koseri; settings: EMA-treated injured cells of Citrobacter, EMA 10 μl of 1000 μg/ml per 1 ml, 4° C. 30 minutes, visible light 10 minutes
Experimental: (§7) The live cell counts of these live cell suspensions were Escherichia coli: 3.2×10^8 cfu/ml, Citrobacter: 6.7×10^7 cfu/ml, Salmonella: 1.9×10^8 cfu/ml, and Klebsiella: 4.8×10^8 cfu/ml.
(§8) 10 μl of an EMA solution prepared at a concentration of 1000 μg/ml by dissolving EMA (Sigma, catalog number: E2028) in sterilized water, and filtering the solution through a 0.45-μm microfilter was added to each of the suspensions of the gram-negative bacteria (live cells and injured cells) and gram-positive bacteria (live cells and injured cells) in a volume of 1 ml, and the mixture was left at 4° C. for 30 minutes under light shielding. Then, the suspension was placed on ice, and irradiated with visible light of 500 W from a lamp (FLOOD PRF, 100 V, 500 W, Iwasaki Electric Co., Ltd.) disposed at a distance of 20 cm from the suspension for 10 minutes. The above steps of adding the EMA solution and irradiating visible light may also be referred to as the “EMA treatment”.
(§9) 990 μl of physiological saline was added to each microtube, and the mixture was sufficiently stirred. […]

[5] = tested on: 16S rRNA gene of Klebsiella; experiment: as above; type: cell-based, Klebsiella oxytoca; settings: EMA-treated injured cells of Klebsiella, EMA 10 μl of 1000 μg/ml per 1 ml, 4° C. 30 minutes, visible light 10 minutes
Experimental: as §7, §8, §9

[6] = tested on: 23S rRNA gene of gram-negative bacteria and gram-positive bacteria; experiment: PCR targeting the 23S rRNA gene after EMA treatment, electrophoresis; type: cell-based; settings: 150 ng template DNA in 50 μl
Experimental: as §7
(§10) The live cell counts of these live cell suspensions were Bacillus: 3.0×10^7 cfu/ml, Listeria: 1.3×10^8 cfu/ml, and Staphylococcus: 1.1×10^6 cfu/ml.
as §8, §9

[7] = tested on: 16S rRNA gene of the other bacteria; experiment: PCR targeting the 16S rRNA gene after EMA treatment, electrophoresis; type: cell-based; settings: EMA-treated injured cells of the other bacteria, EMA 10 μl of 1000 μg/ml per 1 ml, 4° C. 30 minutes, visible light 10 minutes
Experimental: as §7, §10, §8, §9

[8] = poison used together with EMA treatment, 30° C. for 30 minutes
[9] = EMA treatment alone (5 minutes, visible light 5 minutes)

Question: `Cc1c2ccncc2c(C)c2c1[nH]c1ccccc12` [ellipticine] was tested. Which “inhibition of DNA amplification” value [1, 8] did it give?
Answer: markedly inhibited

Question: Which “inhibition of DNA amplification” value [1, 8] does the source give for `CC[C@@]1(O)C(=O)OCc2c1cc1n(c2=O)Cc2cc3ccccc3nc2-1` [camptothecin] here?
Answer: markedly inhibited

Question: Which results are given for `O=C(O)c1cn(C2CC2)c2cc(N3CCNCC3)c(F)cc2c1=O` [ciprofloxacin]?
Answer: result of PCR ([2]; Listeria injured cells): negative; result of PCR ([2]; Listeria live cells): positive; Ct (injured cells, 72 hours of Cip)−Ct (injured cells, No Cip) ([3]; Enterobacter injured cells): 17; result of PCR ([3]; Enterobacter injured cells): negative; Ct (live cells, 72 hours of Cip)−Ct (live cells, No Cip) ([3]; Enterobacter live cells): 13; result of PCR ([3]; Enterobacter live cells): positive; TM pattern analysis of the PCR amplification product ([3]; Enterobacter sakazakii injured cells): is not the targeted amplification product; TM pattern analysis of the PCR amplification product ([3]; Enterobacter sakazakii live cells): corresponds to the 23S rRNA gene as the target

Question: `O=C1c2c(O)ccc(O)c2C(=O)c2c(NCCNCCO)ccc(NCCNCCO)c21` [mitoxantrone] was tested. Which “inhibition of DNA amplification” value (hlyA gene of Listeria; [8]) did it give?
Answer: markedly inhibited

Question: With `CC[n+]1c(-c2ccccc2)c2cc(N=[N+]=[N-])ccc2c2ccc(N)cc21` [EMA, ethidium monoazide] as the compound, how does the “inhibition of DNA amplification” value (hlyA gene of Listeria; [9]) read?
Answer: only slightly inhibited

Question: What about the PCR amplification product [4] of the same compound?
Answer: no PCR amplification product was observed

Question: And the “inhibition of DNA amplification” value [1, 9]?
Answer: only slightly inhibited

Question: And the PCR amplification product [5]?
Answer: no PCR amplification product was observed

Question: What about the “inhibition of PCR” value ([6]; injured cells at a level of 10^8 cfu/ml) of the same compound?
Answer: completely inhibited

Question: And the “inhibition of PCR” value ([6]; live cells)?
Answer: not substantially completely inhibited

Question: What about the PCR amplification product [7] of the same compound?
Answer: amplification products were observed

Question: Which results are given for `COc1cc([C@@H]2c3cc4c(cc3[C@@H](O[C@@H]3O[C@@H]5CO[C@@H](C)O[C@H]5[C@H](O)[C@H]3O)[C@H]3COC(=O)[C@H]23)OCO4)cc(OC)c1O` [etoposide]?
Answer: inhibition of DNA amplification (hlyA gene of Listeria; [8]): markedly inhibited; inhibition of DNA amplification [1, 8]: markedly inhibited
